According to the supplement of paper PMC10331698:
± gives the standard deviation of the averaged measurements.

Experiments:
Experiment in all cases: level (log10 ratio to DMSO vehicle control); higher = higher biomarker level / cell amount than vehicle control
[1] = compound: C=C(C)C(=O)OCC(F)(F)C(F)(F)C(F)(F)F [2,2,3,3,4,4,4-Heptafluorobutyl methacrylate]; conditions: in DMSO
Procedure: (§1)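 BioMAP Diversity Plus panel of 12 human primary cell co-culture systems (3C, 4H, LPS, SAg, BT, BF4T, BE3C, CASM3C, HDF3CGF, KF3CT, MyoF, Mphg). Compounds were added 1 h before stimulation and left for 24 h (MyoF 48 h; BT 72 h for soluble read-outs or 6 d for IgG). Biomarkers were read by ELISA, cytotoxicity by SRB, PBMC viability and proliferation by Alamar Blue. Each well value was divided by the mean of 8 DMSO control wells on the same plate and log10 transformed; duplicate blinded samples were tested at 4 concentrations.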

[2] = compound: C=CC(=O)OCC(F)(F)C(F)(F)C(F)(F)C(F)(F)COC(=O)C=C [1H,1H,6H,6H-Perfluorohexane-1,6-diol diacrylate]; conditions: 6700 nM; in DMSO
Procedure: as §1

[3] = compound: Cc1ccc(S(=O)(=O)OCC(F)(F)C(F)(F)C(F)(F)C(F)(F)C(F)(F)C(F)F)cc1 [1H,1H,7H-Perfluoroheptyl 4-methylbenzenesulfonate]; conditions: in DMSO
Procedure: as §1

Perfluorooctanoic acid = compound: O=C(O)C(F)(F)C(F)(F)C(F)(F)C(F)(F)C(F)(F)C(F)(F)C(F)(F)F [Perfluorooctanoic acid]; conditions: in DMSO
Procedure: as §1

[4] = compound: O=S(=O)(OCC(F)(F)F)C(F)(F)C(F)(F)C(F)(F)C(F)(F)F [2,2,2-Trifluoroethyl perfluorobutanesulfonate]; conditions: in DMSO
Procedure: as §1

Perfluoropinacol = compound: OC(C(F)(F)F)(C(F)(F)F)C(O)(C(F)(F)F)C(F)(F)F [Perfluoropinacol]; conditions: in DMSO
Procedure: as §1

[5] = compound: OCC(F)(F)C(F)(F)C(F)(F)C(F)(F)C(F)(F)C(F)(F)C(F)(F)C(F)(F)CO [1H,1H,10H,10H-Perfluorodecane-1,10-diol]; conditions: in DMSO
Procedure: as §1

[6] = compound: OCCC(F)(F)C(F)(F)C(F)(F)C(F)(F)C(F)(F)C(F)(F)C(F)(F)C(F)(F)F [8:2 Fluorotelomer alcohol]; conditions: 6700 nM; in DMSO
Procedure: as §1

Test System	level (log10) ([1]; 6700 nM)	level (log10) ([1]; 20000 nM)	level (log10) ([1]; 60000 nM)	level (log10) [2]	level (log10) ([3]; 6700 nM)	level (log10) ([3]; 20000 nM)	level (log10) ([3]; 60000 nM)	level (log10) (Perfluorooctanoic acid; 6700 nM)	level (log10) (Perfluorooctanoic acid; 20000 nM)	level (log10) (Perfluorooctanoic acid; 60000 nM)	level (log10) ([4]; 6700 nM)	level (log10) ([4]; 20000 nM)	level (log10) ([4]; 60000 nM)	level (log10) (Perfluoropinacol; 6700 nM)	level (log10) (Perfluoropinacol; 20000 nM)	level (log10) ([5]; 6700 nM)	level (log10) ([5]; 20000 nM)	level (log10) ([5]; 60000 nM)	level (log10) [6]
BF4T:CCL2/MCP-1	0.026 ± 0.0042	0.0355 ± 0.0021	0.0345 ± 0.022	-0.055 ± 0.02	-0.026 ± 0.018	-0.124 ± 0.0085	-0.0585 ± 0.022	0.0265 ± 0.018	0.015 ± 0.013	-0.0835 ± 0.039	0.024 ± 0.0028	0.0125 ± 0.005	0.017 ± 0.021	0.0435 ± 0.032	-0.0175 ± 0.015	-0.0755 ± 0.05	-0.273 ± 0.049	-0.329	-0.0135 ± 0.0035
LPS:M-CSF	0.0125 ± 0.042	0.007 ± 0.035	0.0165 ± 0.023	-0.021 ± 0.021	-0.019 ± 0.033	-0.026 ± 0.0057	0.008 ± 0.03	0.0255 ± 0.054	-0.016 ± 0.1	0.06 ± 0.078	-0.01 ± 0.016	-0.046 ± 0.02	-0.09 ± 0.0085	0.0135 ± 0.015	-0.1085 ± 0.00071	-0.018 ± 0.024	-0.013	0.011	-0.06 ± 0.13
SAg:PBMC Cytotoxicity	-0.0105 ± 0.037	0.015 ± 0.011	0.0075 ± 0.044	-0.066 ± 0.038	0.0275 ± 0.0092	0.0285 ± 0.0092	0.017 ± 0.02	0.0195 ± 0.0021	0.022 ± 0.0085	0.042 ± 0.016	0.0065 ± 0.011	-0.013	0.012 ± 0.0057	0.046 ± 0.033	0.0855 ± 0.0021	0.009	0.0155 ± 0.036	-0.155	-0.0295 ± 0.012
BF4T:MMP-3	-0.009 ± 0.03	-0.011 ± 0.0085	0.006 ± 0.0085	0.085 ± 0.038	-0.006 ± 0.0014	-0.031 ± 0.0014	-0.018 ± 0.0085	-0.007 ± 0.018	0.007 ± 0.0028	0.023 ± 0.021	-0.012 ± 0.0085	-0.0055 ± 0.0035	0.02 ± 0.037	-0.013 ± 0.04	-0.008 ± 0.0057	0.0015 ± 0.021	-0.0375 ± 0.026	-0.105	-0.001 ± 0.0014
3C:HLA-DR	-0.01 ± 0.013	-0.0055 ± 0.0078	0.001 ± 0.0042	-0.025 ± 0.011	0.0215 ± 0.016	0.0165 ± 0.0021	0.0085 ± 0.022	0.0035 ± 0.0092	-0.008 ± 0.028	0.0155 ± 0.043	-0.01 ± 0.011	-0.0135 ± 0.0092	-0.032 ± 0.0014	-0.0405 ± 0.0035	-0.132 ± 0.028	-0.039 ± 0.02	-0.031 ± 0.021	-0.131	-0.0245 ± 0.018
SAg:CD38	-0.0015 ± 0.03	0.007 ± 0.048	0.013 ± 0.068	-0.0305 ± 0.0078	0.005 ± 0.0057	-0.0075 ± 0.012	-0.0075 ± 0.012	-0.008 ± 0.0085	-0.012 ± 0.023	-0.0405 ± 0.0064	-0.0185 ± 0.0092	-0.012 ± 0.0071	-0.0475 ± 0.032	-0.012 ± 0.021	-0.113 ± 0.023	-0.0275 ± 0.00071	-0.04 ± 0.0099	-0.027	-0.004
BT:sIL-2	0.0115 ± 0.035	0.026 ± 0.082	-0.0115 ± 0.042	-0.461 ± 0.18	0.0615 ± 0.0021	0.0305 ± 0.042	-0.0025 ± 0.14	0.0385 ± 0.11	0.039 ± 0.093	0.046 ± 0.12	0.015 ± 0.0042	0.116 ± 0.068	0.102 ± 0.014	0.107 ± 0.059	0.0335 ± 0.071	0.002 ± 0.035	0.0135 ± 0.005	-0.482	0.001 ± 0.052
BT:B cell Proliferation	-0.0305 ± 0.076	-0.02 ± 0.086	-0.058 ± 0.011	-0.188 ± 0.0057	-0.0165 ± 0.012	0.011 ± 0.0028	-0.034 ± 0.0057	0.0195 ± 0.018	0.027 ± 0.021	0.097 ± 0.0099	0.019 ± 0.0042	0.0295 ± 0.019	0.024 ± 0.023	-0.0065 ± 0.0064	-0.085 ± 0.034	0.0155 ± 0.00071	0.0195 ± 0.0078	-0.316	0.0245 ± 0.0064
4H:SRB	-0.0025 ± 0.005	-0.005 ± 0.0042	-0.001 ± 0.0014	-0.0075 ± 0.0035	0.0005 ± 0.026	-0.002 ± 0.011	-0.0605 ± 0.0078	-0.013 ± 0.0071	-0.004 ± 0.023	-0.038 ± 0.031	-0.0025 ± 0.00071	-0.0085 ± 0.011	-0.0015 ± 0.023	-0.0345 ± 0.015	-0.13 ± 0.0078	-0.0085 ± 0.011	-0.026 ± 0.014	-0.153	-0.014 ± 0.0042
SAg:CXCL9/MIG	-0.004 ± 0.03	0.002 ± 0.011	0.009 ± 0.013	-0.009 ± 0.018	0.001 ± 0.0042	-0.028	-0.0075 ± 0.0064	-0.0085 ± 0.0021	-0.008 ± 0.0028	0.004 ± 0.017	0.0035 ± 0.015	-0.004 ± 0.0014	0 ± 0.013	-0.002 ± 0.0028	-0.005 ± 0.0014	-0.022 ± 0.0042	0.0005 ± 0.019	-0.021	-0.006 ± 0.0014
LPS:IL-1alpha	-0.04 ± 0.0057	-0.0105 ± 0.011	0.042 ± 0.0014	-0.0065 ± 0.015	-0.018 ± 0.017	-0.006 ± 0.0042	-0.039 ± 0.0085	0.0135 ± 0.0035	-0.0205 ± 0.043	-0.007 ± 0.017	-0.061 ± 0.079	-0.104 ± 0.041	-0.172 ± 0.052	0.0305 ± 0.011	0.041 ± 0.0014	0.0225 ± 0.033	0.027 ± 0.016	0.066	-0.015 ± 0.013
BF4T:IL-1alpha	-0.005 ± 0.014	-0.009 ± 0.0014	0.002 ± 0.025	-0.0155 ± 0.025	-0.008 ± 0.0085	0.022 ± 0.018	0.04 ± 0.034	-0.009 ± 0.0057	-0.0125 ± 0.018	-0.0055 ± 0.018	0.0195 ± 0.023	0.0085 ± 0.026	0.0075 ± 0.015	0.0025 ± 0.012	-0.025 ± 0.0057	0.0005 ± 0.0021	-0.025 ± 0.023	-0.035	0.005
4H:CD87/uPAR	0.035 ± 0.03	0.012 ± 0.0014	0.055 ± 0.048	-0.04 ± 0.027	0.005 ± 0.0071	0.011 ± 0.02	-0.117 ± 0.032	-0.0695 ± 0.053	-0.0395 ± 0.1	-0.083 ± 0.048	0.0005 ± 0.011	0.001 ± 0.0099	-0.0095 ± 0.039	-0.117 ± 0.022	-0.226 ± 0.029	-0.057 ± 0.0099	-0.083 ± 0.0042	-0.097	-0.069 ± 0.025
BF4T:CD54/ICAM-1	-0.0025 ± 0.022	-0.0085 ± 0.021	-0.005 ± 0.023	-0.0575 ± 0.0021	-0.0055 ± 0.018	-0.01 ± 0.0028	-0.021 ± 0.0085	-0.0115 ± 0.0064	-0.0025 ± 0.012	-0.014 ± 0.028	-0.0115 ± 0.016	-0.014 ± 0.037	-0.0295 ± 0.016	-0.0015 ± 0.011	-0.018 ± 0.0028	-0.031 ± 0.02	-0.091 ± 0.0071	-0.138	-0.0365 ± 0.015
4H:CCL2/MCP-1	0.0125 ± 0.012	-0.007 ± 0.0099	0.0335 ± 0.047	-0.0235 ± 0.019	-0.0455 ± 0.023	-0.098 ± 0.0071	-0.178 ± 0.05	-0.028 ± 0.0071	-0.0395 ± 0.013	-0.0555 ± 0.054	-0.0345 ± 0.015	-0.046 ± 0.0014	-0.0385 ± 0.021	-0.058 ± 0.023	-0.168 ± 0.025	-0.0685 ± 0.0064	-0.105 ± 0.018	-0.092	-0.012 ± 0.014
